Results on 4 molecules are retold here after patent publication US4642364A, “Unsaturated eicosanoic acids” (Hoffmann-La Roche Inc., priority 1986, dated 1987).

Molecules are shown by their SMILES.

Experiment [1] relates to SRS-A synthesis (Rat Peritoneal Cells). As to the kind of experiment: Inhibition of the in vitro synthesis of SRS-A in rat peritoneal cells (ionophore A23187 challenge, guinea pig ileum bioassay). The class given is cell-based, rat (male Sprague-Dawley). Conditions: for inhibition at 10 µM: p values given. The source says: To study the effect of drugs on SRS-A synthesis in rat peritoneal cells, these cells (including mast cells, monocytes, eosinophils and neutrophils)were isolated from male Sprague-Dawley rats (Charles River Laboratories) weighing 180-220 g by the lavage procedure described by Herzig, D. J. and Kusner, E. J., Journal of Pharmacology and Experimental Therapeutics, 194, 457-462 (1975) with the exception that Hanks balanced salt solution used in these experiments was adjusted to pH 6.9 with 5% (V/V) of 0.1M aqueous phosphate buffer and contained 50 m/gml sodium heparin. After removal from the peritoneal cavity of rats, the cells were subsequently isolated by centrifugation at 400×gravity for 10 minutes at 4° C. and resuspended to a concentration of about 2,000,000 cells per ml in Hanks buffer.
Samples for evaluation were prepared by adding various concentrations of test drugs to 2 ml aliquots of the resuspended cells in Hanks buffer. The 2 ml samples used for control contained 2 ml aliquots of resuspended cells in Hanks buffer without drugs. All of the above samples (2 ml final volume) were preincubated at 37° C. for 10 minutes in the presence of varying concentrations of test drug prior to challenge with 5×10^-7 M ionophore […]. This ionophore is disclosed in Burka and Flower, Br. J. Pharmacology 65: 35-41 (1979). Antibiotic A23187 was used as a probe for the study of calcium and magnesium function in biological systems. After ionophore challenge, SRS-A was synthesized in the samples by the cells for 10 minutes (at 37° C.) after which this synthesis was terminated by placing the samples in a boiling water bath for 10 minutes followed by centrifugation at 2,000×g (10 minutes) at 4° C. to remove coagulated protein and cellular debris. The SRS-A present in the resulting supernatants was quantitated by a bioassay using a guinea pig ileum as described in Orange, and Austen, Adv. Immunol. 10: 105-144 144 (1969). For this bioassay, a 1.5 cm segment of ileum was removed from animals weighing 300 to 400 g and suspended in an organ bath containing 10 ml of Tyrodes solution with 10^-6 M atropine sulfate and 10^-6 M pyrilamine maleate. The bath was maintained at 37° C. and aerated with a mixture of 95% O2 and 5%CO2. The concentration of SRS-A in the experimental samples was determined by a comparison of the isotonic contraction responses elicited by the samples with those obtained with varying amounts of an SRS-A standard solution prepared from chopped guinea pig lung as disclosed in Hitchcock, M. J. Pharmacol. Exp. Ther. 207: 630-640 (1978) and quantituted by the procedures of Orange, R. R. and Austen, K. F. Adv. Immunol. 10: 105-144 (1969) against histamine (1 unit of SRS-A being that amount which gives a contractile response similar to that of […] of histamine). In the absence of drug, the ionophore A23187-induced SRS-A synthesis varied between 40 to 50 units of SRS-A per 10^6 cells. In the presence of increasing concentrations of test drug, there was a concentration-related decrease in SRS-A synthesis. [formula] at each concentration of the various test drugs was calculated. The concentration of test drug which inhibits the synthesis of SRS-A by 50% (IC50) was determined for each test drug from a plot of the mean percent inhibition versus the log of drug concentration. The difference of units of SRS-A in the test sample used in the fraction given above was obtained by subtracting from the units of SRS-A in the control from the actual measurement of the units of SRS-A in the sample.

For experiment [2], the target named is T1, Prostaglandin endoperoxide synthase (Ovis aries, UniProt P05979).
T1 construct: sheep seminal vesicular gland microsomes (SSVM) as the enzyme source; from tissue; host or cells: sheep seminal vesicular gland microsomes, acetone powder
T1 sequence (P05979 25-600): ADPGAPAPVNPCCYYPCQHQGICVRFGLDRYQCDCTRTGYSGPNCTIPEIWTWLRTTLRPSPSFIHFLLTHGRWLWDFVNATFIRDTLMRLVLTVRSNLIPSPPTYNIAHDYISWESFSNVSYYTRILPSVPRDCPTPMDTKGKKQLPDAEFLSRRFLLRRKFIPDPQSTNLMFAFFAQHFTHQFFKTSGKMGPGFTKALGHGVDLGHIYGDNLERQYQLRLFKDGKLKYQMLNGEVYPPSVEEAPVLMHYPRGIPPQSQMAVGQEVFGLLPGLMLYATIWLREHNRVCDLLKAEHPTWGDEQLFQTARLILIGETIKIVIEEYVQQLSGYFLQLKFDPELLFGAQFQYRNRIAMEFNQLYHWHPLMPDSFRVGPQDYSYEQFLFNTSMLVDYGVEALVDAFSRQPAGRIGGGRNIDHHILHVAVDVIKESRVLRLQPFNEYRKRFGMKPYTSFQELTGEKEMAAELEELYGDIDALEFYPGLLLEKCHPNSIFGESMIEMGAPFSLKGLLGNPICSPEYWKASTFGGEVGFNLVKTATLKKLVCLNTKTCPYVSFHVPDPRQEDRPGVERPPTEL
As to the kind of experiment: Prostaglandin endoperoxide synthase (PES) assay, oxygen uptake with sheep seminal vesicular gland microsomes. The format is biochemical. Conditions: 33 μM arachidonic acid, pH 8.5. As for the experimental part: The activity of PES was measured polarigraphically by following the disappearance of dissolved O2 from incubation mixtures containing arachidonic acid (AA) as substrate and sheep seminal vesicular gland microsomes (SSVM) as the enzyme source. Fifty mg of an acetone powder of SSVM were suspended, using a glass teflon homogenizer, in 1 ml of 0.1M tris. HCl (pH, 8.5) containing 0.67 mM phenol. This suspension of SSVM was incubated at room temperature in the presence of phenol to maximumly activate the PES and then the suspension was kept at 0°. Samples in a separate reaction vessel were each prepared by adding tris-phenol buffer (2.8 ml), 0.05 ml of the SSVM suspension, and a maximum of 0.12 ml of ethanol containing various concentrations of the test drug. […] Reaction vessels were then allowed to reach temperature equilibrium. An oxygen electrode is inserted into the vessel and then 24 μl of 4.1 mM AA are injected into the sealed vessel through a port on the side of the electrode. The final concentration of AA is 33 μM. Oxygen uptake is recorded and the initial rate of oxygen uptake used as a measure of PES activity. Each of the test compounds were tested initially at a high concentration (1 mM) and then, if required, dilutions are made. The mean percent inhibition was obtained for each concentration of the various test drugs by expressing as a percent the number obtained by dividing the difference of the oxygen uptake of the test sample by the oxygen uptake of the control. The concentration of test drug which inhibits the synthesis of PES by 50% (IC50) which is given in the following table was determined for each test drug from a plot of mean percent inhibition verses drug concentration. The difference of the oxygen uptake of test sample was obtained by subtracting from the oxygen uptake of the control, the oxygen uptake of the test sample.

Experiment [3] deals with SRS-A synthesis (Rat Peritoneal Cells). Conditions: statement on standard; cited from earlier work.
The target of experiment [4] is T2, Δ^12-lipoxygenase (Human Platelet) (Homo sapiens, UniProt P18054).
T2 construct: using human platelets as the enzyme source; from tissue; host or cells: human platelets (washed, lysed by freezing and thawing; 100,000×g supernatant, 50% ammonium sulfate precipitate)
T2 sequence (P18054 1-663): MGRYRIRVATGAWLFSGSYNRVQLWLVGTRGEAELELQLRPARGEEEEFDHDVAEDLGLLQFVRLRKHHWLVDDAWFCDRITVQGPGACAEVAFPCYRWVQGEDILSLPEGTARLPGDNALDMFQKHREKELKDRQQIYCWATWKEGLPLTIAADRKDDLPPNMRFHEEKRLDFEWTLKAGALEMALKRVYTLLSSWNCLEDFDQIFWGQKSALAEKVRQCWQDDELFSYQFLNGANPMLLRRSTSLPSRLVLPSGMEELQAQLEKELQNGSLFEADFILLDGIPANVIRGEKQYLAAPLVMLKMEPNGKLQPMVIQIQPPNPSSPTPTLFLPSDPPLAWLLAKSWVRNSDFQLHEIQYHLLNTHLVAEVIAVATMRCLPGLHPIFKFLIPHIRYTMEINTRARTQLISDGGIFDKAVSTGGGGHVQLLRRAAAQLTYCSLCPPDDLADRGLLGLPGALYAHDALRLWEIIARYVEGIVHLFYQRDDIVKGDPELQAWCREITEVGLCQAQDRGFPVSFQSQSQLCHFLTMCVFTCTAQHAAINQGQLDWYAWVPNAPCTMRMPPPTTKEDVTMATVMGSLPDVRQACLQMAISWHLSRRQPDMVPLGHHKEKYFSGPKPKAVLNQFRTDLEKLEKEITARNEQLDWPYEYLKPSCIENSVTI
Particulars: statement on standard; cited from earlier work.

Experiment [5] concerns the target T1, Prostaglandin endoperoxide synthase. Conditions: statement on standard; cited from earlier work.
The target in experiment [6] is T2, Δ^12-lipoxygenase (Human Platelet). As to the kind of experiment: Δ^12-lipoxygenase assay (conversion of 14C-arachidonic acid to 12-HETE, human platelet enzyme). The class given is biochemical. Particulars: 3-4 μM arachidonic acid. On the procedure: Δ^12 -lipoxygenase activity was measured by following the conversion of ^14 C-arachidonic acid (AA) to ^14 C-12-hydroxy-5,8,10,14-eicosatetraenoic acid (12-HETE) using human platelets as the enzyme source. Washed human platelets from approximately 2000 ml of blood were suspended in 50 ml of phosphate buffered saline (PBS) and then lysed by freezing and thawing (3 times). The platelet lysate was homogenized using a glass-teflon homogenizer and then particulate material was sedimented by centifugation at 100,000×g for 1 hr and the sediment was discarded. The supernatant was made 50% by weight saturated with respect to (NH4)2 SO4 by adding solid ammonium sulfate. The resultant suspension was allowed to stand at 0° overnight. The precipitate was collected by centrifugation and was dissolved in approximately 25 ml of PBS. This solution was the enzyme solution utilized to catalyze the conversion of AA to 12 HETE.
In order to test the compounds, separate incubation tubes for each of the compounds and for concentrations of these compounds were prepared in an ice bath. These tubes each contained 140 μl of PBS containing 1.78 mM glutathione, 10 μl of test drug in ethanol, 50 μl of platelet supernatant, and 50 μl of ^14 C-AA. […] Incubation tubes were prepared containing only buffer ethanol and ^14 c-AA were included as substrate controls. The final concentration of AA added as its ammonium salt in PBS, in each of the incubation tubes 3-4 μM. Sufficient enzyme solution prepared as above was added so that, under the conditions of the assay, approximately 80-90% by weight of the ^14 C-AA was converted to 12-HETE, as determined by prior controls. The tubes were incubated at 37° for 2 min, the reaction was stopped by the addition, while mixing on a mixer, of 2 ml of diethyl ether and 50 μl of 1M citric acid. The ether in the presence of citric acid extracted 12-HETE and AA from enzyme in the reaction medium in each of the samples. The ether extract was evaporated to dryness under nitrogen and then the residue was dissolved in 50 μl of chloroform:methanol (2:1 parts by volume). The dissolved residue containing 12-HETE and AA was applied, as rapidly as possible, to a glass fiber sheet impregnated with silica gel and then the chromatogram was developed using isooctane:methylethylketone:acetic acid (100:9:1 parts by volume) as solvent. Radioactive products and unconverted ^14 C-AA were located using a thin-layer chromatography scanner. The appropriate regions of the chromatogram were cut out, then the radioactivity quantitated using a liquid scintillation counter. The amount of ^14 C-AA converted to product is used as a measure of Δ^12 -lipoxygenase activity.
The mean percent inhibition was calculated by multiplying 100 times the following fraction: [formula] at each concentration of the various test drugs was calculated.

`CCCCCC#CCC#CCC#CCC#CCCCC(=O)O` [5,8,11,14-Eicosatetraynoic Acid, reference compound]: the IC50 in experiment [1] was 3 to 4 µM; in experiment [2], 5 µM. The molecule further gave an inhibition at 10 µM in experiment [1] of 100%. For the same molecule, the “inhibition of SRS-A synthesis (in words)” value in experiment [3] is reported as “standard potent inhibitor of SRS-A synthesis”. Besides, the “inhibition of Δ^12-lipoxygenase (in words)” value in experiment [4] is “potent inhibitor”. Further, in experiment [5], the “inhibition of prostaglandin endoperoxide synthase (in words)” value is listed as “potent inhibitor”.
With `CCCCC/C=C\C/C=C\CC#CCC#CCCCC(=O)OC` [Compound 4, (Z,Z)-11,14-eicosadien-5,8-diynoic acid methyl ester], the IC50 in experiment [1] is under 10 µM; in experiment [6] it was 10 to 100 µM. The molecule also registered an inhibition at 10 µM in experiment [1] of 85 ± 8%.
The matching figures for `CCCCC/C=C\CCCCC#CCC#CCCCC1=NC(C)(C)CO1` [Compound 7, 2[(Z)-13-nonadecen-4,7-diynyl]-4,5-dihydro-4,4-dimethyloxazole]: under 10 µM, about 100 µM and 86 ± 8%.
The matching figures for `CCCCC/C=C\CCCCC#CCC#CCCC(F)C1=NC(C)(C)CO1` (stereo not drawn) [Compound 8, 2-(1-fluorononadec-13(Z)-en-4,7-diynyl)-4,5-dihydro-4,4-dimethyloxazole]: under 10 µM, over 100 µM and 88 ± 6%.
